Source: US4048299A, “Anticaries confectionaries and oral health products” (William Wrigley, Jr. Co., priority 1970, dated 1977)

Columns and labels:
[1] = system: Lactobacillus casei; assay: Acid production inhibition, broth-tube technique; conditions: single agent
Text: (§3) The data was compiled through well-known broth tube analysis techniques.
(a)Measured by broth-tube technique.

[2] = system: oral microorganisms; assay: Acid production inhibition in vitro (summary); assay type: cell-based; conditions: in words, summary of tables
Method: Other in vitro evaluations utilized a broth tube analysis of representative anticaries aldehydes incorporated in the vehicles of this invention against cultures of acid producing microorganisms normally present in the mouth. Standard laboratory procedures were utilized throughout to evaluate the acid production inhibition and growth inhibition over the incubation time of up to 24 hours.

[3] = In vivo caries evaluation, laboratory animals (summary); conditions: one percent level in diet
Text: (§1) Standard laboratory techniques were used to complie the data presented. In each case the aldehyde was incorporated into each specimen's food in a one percent, by weight, quantity, over a period of several weeks. In all cases, caries reduction was noted.
(§2) The aldehydes tested in vivo were pyruvaldehyde, d,1-glyceraldehyde, crystalline dimer, glycolaldehyde, octanaldehyde, nonanaldehyde, decanaldehyde, undecylenic aldehyde, and lauric aldehyde. The polyaldehydes tested were dialdehyde starch, dialdehyde starch 50 percent oxidized, dialdehyde starch 90 percent oxidized, and dialdehyde galactomannan gum.

[4] = In vivo caries evaluation, Osborne-Mendel strain 2 rat; parameters: species or system rat (Osborne-Mendel strain 2); conditions: Table I, 90 days
Text: as §1, §2
^(a) Agents were incorporated in the diet at a 1 percent level.

[5] = system: Mixed Oral Microorganisms; assay: Acid production inhibition, broth-tube technique; conditions: single agent
Text: as §3
(a)Measured by broth-tube technique.

[6] = system: Lactobacillus casei ATCC 4646; assay: Acid production inhibition by aldehydes in product vehicles, broth-tube technique; assay type: cell-based; conditions: 1 to 5 percent aldehyde
[7] = system: Mixed human oral microorganisms; assay: as above; assay type: cell-based; conditions: 1 to 5 percent aldehyde
[8] = Student's test, 95 percent confidence limit
[9] = in compressed candy tablet, 2 h incubation
[10] = in compressed candy tablet, 5 h incubation
[11] = in compressed candy tablet, 24 h incubation
[12] = in dextrose syrup, 2 h incubation
[13] = in dextrose syrup, 5 h incubation
[14] = in dextrose syrup, 24 h incubation
[15] = in sucrose syrup, 2 h incubation
[16] = in sucrose syrup, 5 h incubation
[17] = in sucrose syrup, 24 h incubation
[18] = in tooth powder (aqueous extract), 2 h incubation
[19] = in tooth powder (aqueous extract), 5 h incubation
[20] = in tooth powder (aqueous extract), 24 h incubation
[21] = in toothpaste (aqueous extract), 2 h incubation
[22] = in toothpaste (aqueous extract), 5 h incubation
[23] = in toothpaste (aqueous extract), 24 h incubation

CC(=O)C=O [Pyruvaldehyde]
Acid Production Inhibition ([1]; 0.005 percent): 24% | Acid Production Inhibition ([1]; 0.0075 percent): 57% | Acid Production Inhibition [2]: excellent acid production inhibition | Anticaries effect in laboratory animals [3]: significant anticaries effects | Caries Score, Mean Incidence ([4]; 1 percent in diet, L-2000 control 15.08 (pyruvaldehyde test), 13.94 (glycolaldehyde test)): 5.95 | Caries Score, Mean Extent ([4]; 1 percent in diet, L-2000 control 38.80 (pyruvaldehyde test), 35.38 (glycolaldehyde test)): 14.55 | Caries Extent Reduction, statistical evaluation [4, 8]: Significant | Caries Incidence Reduction, statistical evaluation [4, 8]: Significant | Acid Production Inhibition ([5]; 0.005 percent): 5% | Acid Production Inhibition ([5]; 0.007 percent): 5% | Acid Production Inhibition ([5]; 0.009 percent): 7% | Acid Production Inhibition ([5]; 0.011 percent): 7% | Solubility: water soluble | Acid Production Inhibition [6, 9]: 0 Per Cent | Acid Production Inhibition [6, 10]: 0 Per Cent | Acid Production Inhibition [6, 11]: 75 Per Cent | Acid Production Inhibition [6, 12]: 52 Per Cent | Acid Production Inhibition [6, 13]: 33 Per Cent | Acid Production Inhibition [6, 14]: 88 Per Cent | Acid Production Inhibition ([6]; in hard candy, 2 h incubation): 0 Per Cent | Acid Production Inhibition ([6]; in hard candy, 5 h incubation): 22 Per Cent | Acid Production Inhibition ([6]; in hard candy, 24 h incubation): 90 Per Cent | Acid Production Inhibition [6, 15]: 0 Per cent | Acid Production Inhibition [6, 16]: 20.0 Per cent | Acid Production Inhibition [6, 17]: 89.6 Per cent | Acid Production Inhibition [6, 18]: 0 Per cent | Acid Production Inhibition [6, 19]: 0 Per cent | Acid Production Inhibition [6, 20]: 71 Per cent | Acid Production Inhibition [6, 21]: 0 Per cent | Acid Production Inhibition [6, 22]: 0 Per cent | Acid Production Inhibition [6, 23]: 0 Per cent | Acid Production Inhibition [7, 9]: 0 Per Cent | Acid Production Inhibition [7, 10]: 89 Per Cent | Acid Production Inhibition [7, 11]: 78 Per Cent | Acid Production Inhibition [7, 12]: 15 Per Cent | Acid Production Inhibition [7, 13]: 89 Per Cent | Acid Production Inhibition [7, 14]: 83 Per Cent | Acid Production Inhibition ([7]; in hard candy, 2 h incubation): 20 Per Cent | Acid Production Inhibition ([7]; in hard candy, 5 h incubation): 93 Per Cent | Acid Production Inhibition ([7]; in hard candy, 24 h incubation): 84 Per Cent | Acid Production Inhibition ([7]; in mouthwash, 2 h incubation): 0 Per cent | Acid Production Inhibition ([7]; in mouthwash, 5 h incubation): 94 Per cent | Acid Production Inhibition ([7]; in mouthwash, 24 h incubation): 87 Per cent | Acid Production Inhibition [7, 15]: 77.8 Per cent | Acid Production Inhibition [7, 16]: 92.1 Per cent | Acid Production Inhibition [7, 17]: 91.8 Per cent | Acid Production Inhibition [7, 18]: 0 Per cent | Acid Production Inhibition [7, 19]: 86 Per cent | Acid Production Inhibition [7, 20]: 80 Per cent | Acid Production Inhibition [7, 21]: 0 Per cent | Acid Production Inhibition [7, 22]: 0 Per cent | Acid Production Inhibition [7, 23]: 0 Per cent
